Experiments:
caspase-8 = experiment: Caspase-8 activation (Fas-induced apoptosis) in lung fibroblasts; format: cell-based, human; settings: MRC5
Method: To assess the effects of these cytokines on PTPN13 expression, non-diseased normal human lung fibroblasts (NHLF), fibrotic human lung fibroblasts (FHLF) and a fetal lung fibroblast cell line, MRC5 cells, were treated with TNF-α (10/ng/ml), IFN-γ (50 U/ml) or with both cytokines for 6 hours. PTPN13 expression was measured by quantitative PCR (FIG. 2A). The primary lung fibroblasts from normal and fibrotic lung had equivalent levels of PTPN13 expression to the MRC5 lung fibroblast cell line. […] Treatment with TNF-α alone caused a 40% decrease in PTPN13 expression. Combined exposure to TNF-α and IFN-γ decreased PTPN13 mRNA expression by 80%. Protein lysates from normal, fibrotic and MRC5 fibroblasts treated for 36 hours with TNF-α (10/ng/ml), IFN-γ (50 U/ml) or with both cytokines were then analyzed for PTPN13 expression. […]
In one exemplary method, to assess whether PTPN13 expression prevents Fas-induced apoptosis, PTPN13 expression was knocked-down using siRNA. […] Apoptosis was assayed by quantifying activation of caspase-3 and caspase-8 (FIG. 3C).
In death-receptor mediated apoptosis, formation of the DISC (Death-Inducing Signaling Complex) is essential for the initiation of apoptosis. […] The cells were lysed, immunoprecipitated with anti-Fas antibody, and co-immunoprecipitated FADD and caspase-8 were detected by immunoblotting. […]

Fas phospho-Y291 = experiment: Western blot of Fas tyrosine 291 phosphorylation in MRC5 lung fibroblasts; format: cell-based, human; settings: pervanadate 150 μM, time dependent
Method: PTPN13 has been shown in astrocytoma cells to dephosphorylate Fas at tyrosine 291. Little is known about the regulatory function of tyrosine phosphorylation of Fas. In another exemplary embodiment, to assess the effect of TNF-α and IFN-γ sensitization on the levels of Fas tyrosine phosphorylation, MRC5 lung fibroblasts were treated with TNF-α and IFN-γ for increasing amounts of time. Because TNF-α is known to increase tyrosine phosphorylation of many proteins, such as MAP kinases and AKT, within minutes following stimulation, the kinetics of TNF-α and IFN-γ induced tyrosine phosphorylation of Fas were assessed. MRC5 lung fibroblasts were treated with TNF-α (10 ng/ml) and IFN-γ (50 U/ml) for up to 48 hours. The cells were lysed and analyzed by western blot for phosphorylated Fas, using a phospho-specific antibody for Fas phosho-Y291. TNF-α and IFN-γ increased tyrosine phosphorylation of Fas at tyrosine residue 291 beginning at 18 hours. […] The pervanadate treated MRC5 cells were lysed and analyzed the tyrosine phosphorylation of Fas by western blotting. […] We then detected phosphorylated Fas by Western blot, using a phospho-specific antibody for Fas tyrosine residue 291. […]
FIG. 5: Inhibition of tyrosine phosphatase activity sensitizes lung fibroblasts to Fas-induced apoptosis. […] Caspase-8 activation was measured by a fluorescence based assay. […]

Substance: pervanadate
- increase in caspase-8 activity over unstimulated cells (caspase-8; 150 μM pervanadate 2 hour pre-treatment, then Fas-activating antibody 250 ng/ml): 6 fold
- increase in caspase-8 activity above untreated cells (caspase-8; 150 μM pervanadate alone): 2 fold
- tyrosine phosphorylation of Fas (Fas phospho-Y291): increased
